Patent publication US8354434B2, “Cyclourea compounds as calcium channel blockers” (Purdue Pharma L.P., priority 2006, dated 2013)

Columns and labels:
[1] = target: T1, L-type calcium channel (LTCC) (Rattus norvegicus, UniProt P22002); test: FLIPR calcium mobilization assay for L-type calcium channel; type: cell-based; conditions: calcium mobilization in vitro assay, differentiated A7r5 cells
T1 construct: differentiated A7r5 cells were trypsinized, then seeded on tissue culture treated 96-well clear-bottom black plates; endogenous in cells; host or cells: A7r5 cells (ATCC), differentiated 8 days with dibutyryl cAMP
T1 sequence (P22002 whole entry): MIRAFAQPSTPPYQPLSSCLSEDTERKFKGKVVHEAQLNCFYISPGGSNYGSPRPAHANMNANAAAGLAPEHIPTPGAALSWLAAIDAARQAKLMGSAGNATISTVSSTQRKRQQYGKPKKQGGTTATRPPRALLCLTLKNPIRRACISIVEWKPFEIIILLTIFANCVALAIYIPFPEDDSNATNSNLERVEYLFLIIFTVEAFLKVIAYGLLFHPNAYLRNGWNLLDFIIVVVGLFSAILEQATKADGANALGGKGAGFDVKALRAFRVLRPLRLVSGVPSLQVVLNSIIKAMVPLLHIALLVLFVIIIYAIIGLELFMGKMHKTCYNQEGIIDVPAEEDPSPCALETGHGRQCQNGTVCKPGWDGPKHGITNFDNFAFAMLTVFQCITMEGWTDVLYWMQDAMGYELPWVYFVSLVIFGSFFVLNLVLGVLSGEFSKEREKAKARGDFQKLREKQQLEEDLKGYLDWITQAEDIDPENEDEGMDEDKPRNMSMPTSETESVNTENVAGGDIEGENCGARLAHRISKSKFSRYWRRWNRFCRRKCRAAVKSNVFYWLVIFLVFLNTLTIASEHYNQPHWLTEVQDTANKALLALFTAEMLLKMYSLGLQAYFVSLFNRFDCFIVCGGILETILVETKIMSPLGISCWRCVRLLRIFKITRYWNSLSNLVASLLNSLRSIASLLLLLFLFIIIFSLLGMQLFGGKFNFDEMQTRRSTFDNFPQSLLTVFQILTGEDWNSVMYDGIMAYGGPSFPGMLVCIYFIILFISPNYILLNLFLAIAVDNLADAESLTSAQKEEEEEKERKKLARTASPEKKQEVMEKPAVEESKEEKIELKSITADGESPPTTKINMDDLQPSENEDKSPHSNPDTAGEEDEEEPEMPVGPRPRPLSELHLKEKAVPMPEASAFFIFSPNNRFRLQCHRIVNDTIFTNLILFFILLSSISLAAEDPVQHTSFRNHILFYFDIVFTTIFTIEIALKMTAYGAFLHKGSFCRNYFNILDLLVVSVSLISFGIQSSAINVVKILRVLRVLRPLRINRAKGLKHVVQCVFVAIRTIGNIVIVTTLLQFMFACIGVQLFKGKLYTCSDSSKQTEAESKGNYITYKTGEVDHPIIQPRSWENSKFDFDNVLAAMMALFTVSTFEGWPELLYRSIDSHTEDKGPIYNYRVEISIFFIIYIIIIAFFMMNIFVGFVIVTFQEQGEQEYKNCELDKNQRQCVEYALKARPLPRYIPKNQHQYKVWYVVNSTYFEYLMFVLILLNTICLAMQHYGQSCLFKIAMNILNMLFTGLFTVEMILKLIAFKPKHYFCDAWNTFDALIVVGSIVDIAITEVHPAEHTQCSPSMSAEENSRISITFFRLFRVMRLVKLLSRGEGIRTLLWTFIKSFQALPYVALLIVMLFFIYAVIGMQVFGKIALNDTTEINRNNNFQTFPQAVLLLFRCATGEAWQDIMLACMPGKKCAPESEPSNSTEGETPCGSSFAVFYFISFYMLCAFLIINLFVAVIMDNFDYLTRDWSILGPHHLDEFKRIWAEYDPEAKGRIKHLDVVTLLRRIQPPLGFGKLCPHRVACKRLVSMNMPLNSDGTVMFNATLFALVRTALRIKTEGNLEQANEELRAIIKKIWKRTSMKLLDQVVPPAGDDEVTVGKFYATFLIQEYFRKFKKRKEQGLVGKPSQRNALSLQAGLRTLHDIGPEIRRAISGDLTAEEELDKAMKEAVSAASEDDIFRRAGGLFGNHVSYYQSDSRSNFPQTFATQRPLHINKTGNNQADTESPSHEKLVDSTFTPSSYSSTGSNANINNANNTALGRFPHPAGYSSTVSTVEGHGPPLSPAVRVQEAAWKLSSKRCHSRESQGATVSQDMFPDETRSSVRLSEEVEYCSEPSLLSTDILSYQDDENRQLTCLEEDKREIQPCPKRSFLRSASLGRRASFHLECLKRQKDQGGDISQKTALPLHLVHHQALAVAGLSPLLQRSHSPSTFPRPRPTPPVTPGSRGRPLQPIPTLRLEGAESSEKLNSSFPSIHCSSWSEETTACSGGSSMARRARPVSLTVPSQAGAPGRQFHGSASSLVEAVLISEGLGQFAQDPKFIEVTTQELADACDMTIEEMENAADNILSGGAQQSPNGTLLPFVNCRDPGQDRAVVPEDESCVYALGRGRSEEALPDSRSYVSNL
T1 sequence (P54287 whole entry partner): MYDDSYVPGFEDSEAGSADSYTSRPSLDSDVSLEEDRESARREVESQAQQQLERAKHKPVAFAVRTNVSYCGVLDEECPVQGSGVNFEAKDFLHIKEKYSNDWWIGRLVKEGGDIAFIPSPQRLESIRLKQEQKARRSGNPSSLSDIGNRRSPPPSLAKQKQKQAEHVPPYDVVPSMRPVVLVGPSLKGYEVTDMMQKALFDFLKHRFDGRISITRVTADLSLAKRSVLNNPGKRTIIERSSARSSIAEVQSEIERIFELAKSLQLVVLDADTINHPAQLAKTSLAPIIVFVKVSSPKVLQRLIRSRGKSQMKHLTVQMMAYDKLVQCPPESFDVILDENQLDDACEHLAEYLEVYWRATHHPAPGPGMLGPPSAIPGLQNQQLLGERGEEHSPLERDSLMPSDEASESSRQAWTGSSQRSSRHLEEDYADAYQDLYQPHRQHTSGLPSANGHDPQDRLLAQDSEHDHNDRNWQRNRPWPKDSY
T1 sequence (P54290 25-944 partner limits assumed): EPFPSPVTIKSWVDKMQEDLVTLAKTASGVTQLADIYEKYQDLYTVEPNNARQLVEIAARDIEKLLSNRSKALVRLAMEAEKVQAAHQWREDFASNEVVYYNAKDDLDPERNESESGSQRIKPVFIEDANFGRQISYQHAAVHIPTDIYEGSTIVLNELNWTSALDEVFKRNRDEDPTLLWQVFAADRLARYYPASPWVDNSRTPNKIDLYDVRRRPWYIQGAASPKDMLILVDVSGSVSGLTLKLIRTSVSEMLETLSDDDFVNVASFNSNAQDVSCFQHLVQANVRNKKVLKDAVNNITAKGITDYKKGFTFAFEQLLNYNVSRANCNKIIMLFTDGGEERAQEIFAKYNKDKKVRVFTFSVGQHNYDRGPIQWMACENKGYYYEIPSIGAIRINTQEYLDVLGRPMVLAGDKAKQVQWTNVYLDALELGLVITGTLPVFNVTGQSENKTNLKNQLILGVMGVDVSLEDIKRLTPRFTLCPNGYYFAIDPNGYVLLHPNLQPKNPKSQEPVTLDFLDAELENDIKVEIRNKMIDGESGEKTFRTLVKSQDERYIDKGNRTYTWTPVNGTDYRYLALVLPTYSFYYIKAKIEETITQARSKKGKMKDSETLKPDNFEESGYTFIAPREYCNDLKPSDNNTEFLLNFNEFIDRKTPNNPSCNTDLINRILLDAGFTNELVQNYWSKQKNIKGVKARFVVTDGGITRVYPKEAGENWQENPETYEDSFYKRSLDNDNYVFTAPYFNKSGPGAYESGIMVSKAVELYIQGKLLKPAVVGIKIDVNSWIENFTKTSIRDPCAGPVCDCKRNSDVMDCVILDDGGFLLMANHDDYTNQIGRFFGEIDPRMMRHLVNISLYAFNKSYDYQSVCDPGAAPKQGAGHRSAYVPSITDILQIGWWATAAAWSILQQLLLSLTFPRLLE
T1 sequence (P54290 945-1091 partner limits assumed): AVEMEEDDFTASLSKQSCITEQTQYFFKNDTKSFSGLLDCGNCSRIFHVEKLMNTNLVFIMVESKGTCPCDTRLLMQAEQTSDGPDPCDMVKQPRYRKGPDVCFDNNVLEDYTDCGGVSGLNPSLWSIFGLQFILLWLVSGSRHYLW
Protocol: A7r5 (ATCC) cells were maintained and routinely cultured in A7r5 growth medium consisting of Dulbecco's Modified Eagles Medium containing 10% FBS, 100 U/mL penicillin, 100 μg/mL streptomycin, 4 mM L-glutamine, and 0.15% sodium bicarbonate. 80-90% confluent flasks of cells were differentiated using the following differentiation medium: A7r5 Growth Medium plus 1 mM dibutyryl cyclic AMP (Sigma). Cells were differentiated for 8 days by replacing differentiation medium every 2-3 days.
FLIPR Calcium Mobilization Assay for L-type Calcium Channel. One day prior to performing this assay, differentiated A7r5 cells were trypsinized, then seeded on tissue culture treated 96-well clear-bottom black plates (Becton Dickinson, Franklin Lakes, N.J.) at a dilution of 1:1 from a confluent T150 cm^2 flask. On the day of the assay, the plates were washed with A7r5 wash buffer (127 mM NaCl, 2 mM MgCl2, 700 μM NaH2PO4, 5 mM CaCl2, 5 mM NaHCO3, 8 mM HEPES, 10 mM glucose, pH 7.4), then loaded with 0.1 mL of A7r5 wash buffer containing Fluo-4 (3 μM final concentration, Molecular Probes, Eugene, Oreg.). After 1 hour, the cells were washed with 0.1 mL A7r5 wash buffer and resuspended in 0.05 mL A7r5 assay buffer that was composed of A7r5 wash buffer plus 50 μM valinomycin (Sigma). Plates were then transferred to a FLIPR^96 for assay. The FLIPR measured basal Fluo-4 fluorescence for 15 seconds, then added 0.05 mL of each compound tested diluted in A7r5 assay buffer at final concentrations ranging from about […]. Fluo-4 fluorescence was then measured for 5 minutes. 0.1 mL KCl agonist dissolved in A7r5 assay buffer was then added to the cells to produce a final concentration of 90 mM KCl, and fluorescence was measured for another 45 seconds. Data were collected over the entire time course and analyzed using Excel, Graph Pad Prism, or Activity Base software.

[2] = target: T2, N-type calcium channel (NTCC) (Homo sapiens, UniProt Q00975); test: FLIPR calcium mobilization assay for N-type calcium channel; type: cell-based; conditions: calcium mobilization in vitro assay, differentiated IMR32 cells
T2 construct: endogenous in cells; host or cells: IMR32 cells (ATCC), differentiated 8 days with dibutyryl cAMP and bromodeoxyuridine
Protocol: Cell maintenance and differentiation. Unless noted otherwise, cell culture reagents were purchased from Life Technologies of Rockville, Md. IMR32 cells (American Type Culture Collection, ATCC, Manassas, Va.) were routinely cultured in growth medium consisting of minimum essential medium containing 10% fetal bovine serum (FBS, Hyclone, Logan, Utah), 100 U/mL penicillin, 100 μg/mL streptomycin, 2 mM L-glutamine, 1 mM sodium pyruvate, and 1×MEM non-essential amino acids. 80-90% confluent flasks of cells were differentiated using the following differentiation medium: Growth medium plus 1 mM dibutyryl cyclic AMP (Sigma, St. Louis, Mo.), and 2.5 μM bromodeoxyuridine (Sigma). Cells were differentiated for 8 days by replacing differentiation medium every 2-3 days.
FLIPR Calcium Mobilization Assay for N-type Calcium Channel. One day prior to performing this assay, differentiated IMR32 cells were treated with 1×CellStripper, and seeded on poly-D-lysine-coated 96-well clear-bottom black plates (Becton Dickinson, Franklin Lakes, N.J.) at 200,000 cells/well. On the day of the assay, the cell plates were washed with IMR32 buffer (127 mM NaCl, 1 mM KCl, 2 mM MgCl2, 700 μM NaH2PO4, 5 mM CaCl2, 5 mM NaHCO3, 8 mM HEPES, 10 mM glucose, pH 7.4), then pre-stimulated with KCl and loaded as follows: 0.05 mL of IMR32 buffer, 0.05 mL of each compound tested diluted in IMR32 buffer containing 20 μM nitrendipine (Sigma), and 0.1 mL KCl dissolved in IMR32 buffer, plus Fluo-4 were added (3 μM final concentration, Molecular Probes, Eugene, Oreg.). Final test compound concentrations ranged from about 846 μM to about 17 μM, final nitrendipine concentration was 5 μM, and final KCl concentration was 90 mM. After 1 hour, the cells were washed twice with 0.05 mL of each compound tested in nitrendipine-containing IMR32 buffer (no KCl or Fluo-4), and then replaced with 0.1 mL of each compound tested in nitrendipine-containing IMR32 buffer. Plates were then transferred to a Fluorimetric Imaging Plate Reader (FLIPR^96, Molecular Devices, Inc., Sunnyvale, Calif.) for assay. The FLIPR measured basal Fluo-4 fluorescence for 315 seconds (i.e., 5 minutes and 15 seconds), then added 0.1 mL KCl agonist dissolved in IMR32 buffer and measured fluorescence for another 45 seconds. Final test compound concentrations on the cells after FLIPR read ranged from about 846 μM to about 17 μM, final nitrendipine concentration was 5 μM, and final KCl concentration was 90 mM. Data were collected over the entire time course and analyzed using Excel, Graph Pad Prism (version 3.02, Graph Pad, San Diego, Calif.), or Activity Base (version 5.1, IDBS, Parsippany, N.J.) software.

IC50 [1]	IC50 [2]	SMILES
10 to 20 µM	4330 nM	O=C1N(CCC(c2ccccc2)c2ccccc2)CCN1c1ccccc1 [1-(3,3-diphenylpropyl)-3-phenylimidazolidin-2-one]
0.79 µM	670 nM	CN1CCN(CCCC(c2ccc(F)cc2)c2ccc(F)cc2)C1=O [1-[4,4-bis(4-fluorophenyl)butyl]-3-methylimidazolidin-2-one]
3.29 µM	340 nM	O=C(OCc1ccccc1)N1C(=O)N(CCCC(c2ccc(F)cc2)c2ccc(F)cc2)[C@H]2C[C@H]21 [2-[4,4-Bis(4-fluorophenyl)butyl]-4-benzyloxycarbonyl-2,4-diaza-bicyclo[3.1.0]hexan-3-one]
> 20 µM	2150 nM	O=c1n(CCCC(c2ccc(F)cc2)c2ccc(F)cc2)c2ccccc2n1CCN1CCCCC1 [1-[4,4-Bis(4-fluorophenyl)butyl]-3-[2-(piperidin-1-yl)ethyl]-1,3-dihydro-benzoimidazol-2-one]
3.43 µM	1190 nM	O=C1N(CCCC(c2ccc(F)cc2)c2ccc(F)cc2)CCN1Cc1ccncc1 [1-[4,4-Bis(4-fluorophenyl)butyl]-3-(pyridin-4-ylmethyl)imidazolidin-2-one]
0.41 µM	620 nM	O=C1N(CCCC(c2ccc(F)cc2)c2ccc(F)cc2)CCN1C1CC1 [1-[4,4-bis(4-fluorophenyl)butyl]-3-cyclopropylimidazolidin-2-one]
–	3690 nM	O=C1NCCN1CCCC(c1ccc(F)cc1)c1ccc(F)cc1 [1-[4,4-Bis(4-fluorophenyl)butyl]-imidazolidin-2-one]
4.69 µM	810 nM	O=c1n(CCCC(c2ccc(F)cc2)c2ccc(F)cc2)c2ccccc2n1Cc1ccccn1 [1-[4,4-Bis(4-fluorophenyl)butyl]-3-(pyridin-2-yl)methyl-1,3-dihydro-benzoimidazol-2-one]
3.56 µM	1360 nM	O=C1N(CCCC(c2ccc(F)cc2)c2ccc(F)cc2)CCN1CCN1CCCC1 [1-[4,4-bis(4-fluorophenyl)butyl]-3-[2-(pyrrolidin-1-yl)ethyl]imidazolidin-2-one]
3.63 µM	1140 nM	O=C1N(CC=Cc2ccccc2)CCN1CCCC(c1ccc(F)cc1)c1ccc(F)cc1 [1-[4,4-bis(4-fluorophenyl)butyl]-3-(3-phenylprop-2-enyl)imidazolidin-2-one]
